Laboratory results from patent US20230242526A1 (Zentaur Therapeutics International Limited, priority 2020, published 2023).
pIC50: −log10 of the molar value.

What was measured:
[1] = system: human breast squamous HCC1806 cell line; experiment: CyQUANT Direct cell proliferation assay, HCC1806; format: cell-based; conditions: HCC1806, 168 h, 7 days
Excerpt: (§1) The human ovarian carcinoma OVCAR3 cell line (ATCC HTB-161™) or human breast squamous HCC1806 cell line (ATCC CRL 2335) were obtained from American Type Culture Collection (ATCC), and maintained in culture media according to the supplier's specification.
(§2) The CyQUANT® Direct Cell Proliferation Assay Kit (Invitrogen™, catalog No. G35012) was utilized to test the inhibitory activities of the CDK2 inhibitors described in this disclosure against OVCAR3 or HCC1806 tumor cells.
(§3) CyQUANT® Direct Cell Proliferation Assay: The spent medium from the purchased tumor cell culture plate was removed and the tumor cells were washed with PBS buffer twice. Trypsin (VWR catalog No. 0458-25G) was added to digest the tumor cells until tumor cells appeared round shaped and to dissociate adherent cells from the plate wall in which they are being cultured. Then RPMI-1640 media (HCC1806, Gibco™ catalog No, A10491-01) with 10% fetal bovine serum (FBS) (Hyclone™ catalog No. SV30160.03), or RPMI-1640 media (OVCAR-3, Gibco™ catalog No. 10370-021) with 20% FBS and 0.01 mg/mL insulin was added to stop the trypsin digestion reaction. The tumor cells were lightly agitated with a liquid transfer pipette to cause tumor cells suspended in the culture media. The cells were counted. The complete medium was used to prepare tumor cell suspension.
(§4) OVCAR3 or HCC1806 cells were seeded at 40 μL/well in 384-well plates in growth media containing FBS and cultured 24 hours in the incubator at 37° C., 5% CO2. […] Compound solutions were added by Agilent Bravo liquid handler. […] The control wells contained the growth medium having 0.1% DMSO. Cells were incubated at 37° C., 5% CO2 for 7 days.
(§5) CYQUANT Direct Cell Proliferation Assay (Molecular Probes, Eugene, Oreg.) was then performed following manufacturer's instructions to prepare the detection reagents. 50 μL of detection reagent was aliquot and added to each well and the cells were incubated at 37° C. for 1 hr.
(§6) The cell culture plates were placed on TECAN M1000 microplate reader to detect the fluorescence intensity at 508 nm excitation and 527 nm emission wavelengths. Graphpad Prism 6.0 software was used for data processing, preparing cell growth curve, calculating percentage inhibition on cell growth. IC50 values were calculated by concentration-response curve fitting utilizing a four-parameter analytical method using GraphPad Prism software.

[2] = system: human ovarian carcinoma OVCAR3 cell line; experiment: CyQUANT Direct cell proliferation assay, OVCAR-3; format: cell-based; conditions: OVCAR-3, 168 h, 7 days
Excerpt: as §1, §2, §3, §4, §5, §6

CDK9/Cyclin T1 = CDK9/Cyclin T1 (Homo sapiens, UniProt P50750); experiment: CDK9/Cyclin T1 kinase assay; format: biochemical
CDK9/Cyclin T1, sequence (P50750 whole entry): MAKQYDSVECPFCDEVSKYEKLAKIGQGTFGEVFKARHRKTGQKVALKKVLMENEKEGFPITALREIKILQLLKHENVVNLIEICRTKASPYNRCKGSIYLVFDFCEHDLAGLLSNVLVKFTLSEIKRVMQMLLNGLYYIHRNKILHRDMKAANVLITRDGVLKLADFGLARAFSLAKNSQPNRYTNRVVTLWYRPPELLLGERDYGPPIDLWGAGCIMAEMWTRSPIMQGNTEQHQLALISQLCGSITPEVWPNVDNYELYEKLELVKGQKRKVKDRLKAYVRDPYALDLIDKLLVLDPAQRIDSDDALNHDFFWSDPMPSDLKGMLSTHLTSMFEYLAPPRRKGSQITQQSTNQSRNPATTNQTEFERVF
CDK9/Cyclin T1, sequence (O60563 whole entry partner): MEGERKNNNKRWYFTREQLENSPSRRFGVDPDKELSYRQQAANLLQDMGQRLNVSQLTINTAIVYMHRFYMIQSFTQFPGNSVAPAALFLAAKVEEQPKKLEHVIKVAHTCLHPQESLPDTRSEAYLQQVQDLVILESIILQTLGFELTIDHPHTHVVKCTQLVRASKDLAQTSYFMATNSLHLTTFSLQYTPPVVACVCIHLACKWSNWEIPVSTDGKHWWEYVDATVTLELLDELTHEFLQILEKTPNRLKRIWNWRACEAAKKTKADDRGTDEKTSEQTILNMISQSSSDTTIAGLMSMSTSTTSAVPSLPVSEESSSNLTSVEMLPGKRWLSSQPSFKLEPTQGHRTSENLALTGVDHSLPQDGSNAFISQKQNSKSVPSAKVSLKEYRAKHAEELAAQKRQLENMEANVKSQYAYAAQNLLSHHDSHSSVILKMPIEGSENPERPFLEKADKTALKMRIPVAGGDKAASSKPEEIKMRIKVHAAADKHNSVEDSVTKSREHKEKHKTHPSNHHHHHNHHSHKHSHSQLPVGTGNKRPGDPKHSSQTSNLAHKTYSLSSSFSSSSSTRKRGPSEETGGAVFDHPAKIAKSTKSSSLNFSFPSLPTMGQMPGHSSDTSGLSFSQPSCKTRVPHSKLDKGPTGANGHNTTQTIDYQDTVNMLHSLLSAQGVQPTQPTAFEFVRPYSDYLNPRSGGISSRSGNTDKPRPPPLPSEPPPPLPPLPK
Protocol: (1). Recombinant enzymes CDK1, CDK2, CDK4, CDK6, CDK9, cyclin B1, cyclin A2, cyclin D3, cyclin E1, cyclin T1 were cloned and purified at Wuxi Biortus Biochemistry Co. Ltd.
(8) Peptide substrate-CDK9 (Ahx-GSRTPMY-NH2, Scilight-Peptide, Cat. C0769102).
The test compounds were dissolved and diluted in DMSO. A stock DMSO solution of the test compound of the invention was prepared by dissolving the compound in DMSO to form a 10 mM solution.
2 μL of testing compound solutions and 5 μL of enzyme solution were added into the 384-well microplate followed by a 10 minute incubation. The reaction was then initiated by the addition of 5 μL of peptide substrate and ATP mixture solution and incubated at 27° C. for 30 minutes. The enzyme reaction in each well was terminated by adding 4 μL of 120 mM EDTA solution. Each assay was carried out in duplicates.
DMSO was used as negative control (0%) for enzyme activity. 20 μM Staurosporine was used as positive control (100%) for enzyme activity.
Plates were read for fluorescence on a Caliper EZ Reader II by separating the fluorescent labeled substrate from the enzyme phosphorylation product by electrophoresis. Data were collected and analyzed using GraphPad Prism version 6.0 software.
Dose-response curves were plotted from inhibition data generated, each in duplicate, from 10 point serial dilutions of inhibitory compounds. Concentration of compound was plotted against % kinase activity. To generate IC50 values, the dose-response curves were then fitted to a standard sigmoidal curve and IC50 values were derived by nonlinear regression analysis.

in vitro [3] = conditions: human, microsomes, pH 7.4, t1/2 human
Protocol: (§7) Human liver microsomes (cat. No. 452161), mouse liver microsomes (cat. No. 452701), were purchased from Corning.
(§8) Samples were analyzed using LC-MS/MS using a SCIEX API 4000 mass spectrometer coupled with Agilent HPLC analytical system. After separation on a ZORBAX XDB-C18 column (5 μm, 50×2.1 mm, column No. 50-282) using an acetonitrile-water gradient system, peaks were analyzed by mass spectroscopy (MS) using ESI ionization in Q1 and Q3 scan mode.
(§9) The LC and MS are all controlled by Analyst software.
(§10) The liver microsomes were incubated with 1.0 μM of the testing compound at 37° C. The incubation mixture contained 100 mM PBS buffer (pH=7.4), 3 mM MgCl2 and 1 mM NADPH. The concentration of liver microsome in the incubation mixture was 0.5 mg/mL for testing compound, and 0.2 mg/mL for MDZ and the total volume is 0.2 mL. […] Aliquots were withdrawn at time points of 0 min, 5 min and 20 min for MDZ. The reactions were terminated by transferring the aliquots to a methanol solution containing the internal standard […] for analytical quantification. The quenched samples were analyzed by LC-MS/MS. The incubations were carried out in duplicates. The metabolic stability of the testing compounds by the liver microsomes of human and mice is expressed as elimination half-life (t1/2). The results are shown as the means of duplicate determinations±SD.

in vitro [4] = conditions: mouse, microsomes, pH 7.4, t1/2 mouse
Protocol: as §7, §8, §9, §10

pIC50 [1] | pIC50 [2] | pIC50 (CDK9/Cyclin T1) | half-life at 1 μM (in vitro [3]) | half-life at 1 μM (in vitro [4]) | SMILES
6.79 | 5.36 |  |  |  | CCN1CCN(Cc2ccc(Nc3ncc(F)c(-c4cc(F)c5nc(C)n(C(C)C)c5c4)n3)nc2)CC1 [LY2835219]
7.16 |  |  | 9.62 h | 0.392 h | [2H]C1([2H])CN(S(C)(=O)=O)CC([2H])([2H])C1Nc1ncc2ccc(=O)n([C@@H]3CCC[C@@]3(C)O)c2n1 [Comp. 61, (−)-8-((1R,2R)-2-hydroxy-2-methylcyclopentyl)-2-((1-(methylsulfonyl)piperidin-4-yl-3,3,5,5-d4)amino)pyrido[2,3-d]pyrimidin-7(8H)-one]
 |  |  | 16.5 h | 0.408 h | [2H]C1(Nc2ncc3ccc(=O)n([C@@H]4CCC[C@@]4(C)O)c3n2)CCN(S(C)(=O)=O)CC1 [Comp. 47, (−)-8-((1R,2R)-2-hydroxy-2-methylcyclopentyl)-2-((1-(methylsulfonyl)piperidin-4-yl-4-d)amino)pyrido[2,3-d]pyrimidin-7(8H)-one]

Second part, the compound before the results:

SMILES | pIC50 [1] | pIC50 [2] | pIC50 (CDK9/Cyclin T1) | half-life at 1 μM (in vitro [3]) | half-life at 1 μM (in vitro [4])
Cc1cc2cnc(NC3CCN(S(C)(=O)=O)CC3)nc2n([C@@H]2CCC[C@@]2(C)O)c1=O (racemic) [Comp. 3, (±)-8-(2-hydroxy-2-methylcyclopentyl)-6-methyl-2-((1-(methylsulfonyl)piperidin-4-yl)amino)pyrido[2,3-d]pyrimidin-7(8H)-one, reference compound] | 7.27 | 7.41 |  |  | 
C[C@@]1(O)CCC[C@H]1n1c(=O)ccc2cnc(NC3CCN(S(C)(=O)=O)CC3)nc21 (racemic) [Comp. 1, (±)-8-(2-hydroxy-2-methylcyclopentyl)-2-((1-(methylsulfonyl)piperidin-4-yl)amino)pyrido[2,3-d]pyrimidin-7(8H)-one, reference compound] | 7.06 | 7.27 |  |  | 
[2H]C(F)(F)c1cc2cnc(NC3CCN(S(C)(=O)=O)CC3)nc2n(C2CCCC2(C)O)c1=O (racemic) [Comp. 20, (±)-6-(difluoromethyl-d)-8-(2-hydroxy-2-methylcyclopentyl)-2-((1-(methylsulfonyl)piperidin-4-yl)amino)pyrido[2,3-d]pyrimidin-7(8H)-one] | 6.90 | 6.98 | 5.22 |  | 
[2H]C([2H])([2H])c1cc2cnc(NC3CCN(S(C)(=O)=O)CC3)nc2n(C2CCCC2(C)O)c1=O (racemic) [Comp. 11, (±)-8-(2-hydroxy-2-methylcyclopentyl)-6-(methyl-d3)-2-((1-(methylsulfonyl)piperidin-4-yl)amino)pyrido[2,3-d]pyrimidin-7(8H)-one] | 7.54 | 7.67 |  |  | 
C[C@@]1(O)CCC[C@H]1n1c(=O)ccc2cnc(NC3CCN(S(C)(=O)=O)CC3)nc21 [Comp. 6, (−)-8-(2-hydroxy-2-methylcyclopentyl)-2-((1-(methylsulfonyl)piperidin-4-yl)amino)pyrido[2,3-d]pyrimidin-7(8H)-one, reference compound] | 7.25 | 7.41 | 5.19 | 11.6 h | 0.403 h
